Laboratory results taken from patent publication US20150329883A1 (Samsung Electronics Co., Ltd., priority 2014, published 2015).
In brackets after ≈: the same amount, converted by molar mass. Several values for one entry are separate records, joined by “and”; a condition that tells them apart may be missing. Equal entries are not always repeated. Where two headings read alike, the source gives them in different places.

How the values were obtained:
[1] = tested on: Corynebacterium S003 strain (Δldh, Δpta-ackA, ΔpoxB, and ΔactA); experiment: microbe, parasite or virus in culture; conditions: for IC50: Corynebacterium
Protocol: In particular, for a seed culture, the strain was streaked on an active plate including agar 5 g/L of yeast extract, 10 g/L of beef extract, 10 g/L of polypeptone, 5 g/L of NaCl, and 20 g/L of agar, and then cultured at a temperature of 30° C. for about 48 hours. A single colony obtained therefrom was inoculated in 5 ml of a BHIS medium (including 37 g/L of brain-heart infusion agar, 91 g/L of D-sorbitol, pH 7.0) and grown overnight at a temperature of 30° C.
1 ml of the obtained culture solution was inoculated in a 25 ml of BHIS in a 250 ml flask and grown until an OD600 value was 5.0. The culture solution was centrifuged, a supernatant thereof was removed to collect the microorganism only, and the microorganism was washed with CGXII minimal medium. The CGXII minimal medium includes 20 g/L of (NH4)2SO4, 5 g/L of urea, 1 g/L of KH2PO4, 1 g/L of K2HPO4, 0.25 g/L of MgSO4.7H2O, 10 mg/L of CaCl2, 10 mg/L of FeSO4.7H2O, 0.1 mg/L of MnSO4.H2O, 1 mg/L of ZnSO4.7H2O, 0.2 mg/L of CuSO4.5H2O, […], 0.2 mg/L of biotin, 42 g/L of 3-morpholinopropanesulfonic acid (MOPS), and 4% (w/v) of glucose.

[2] = tested on: S003/pGEX4-NCgl0275 strain; experiment: microbe, parasite or virus in culture
Description: A strain that overexpresses the fourteen SRGs was obtained by cloning the SRGs to Xhol/BamHI restriction site of a pGEX-4 vector to be expressed under an influence of a Ptuf promoter as described in “2. Preparation of pGEX_Ptuf::Ncgl1853, Ncgl1855, Ncgl2988, Ncgl2425, Ncgl2404, Ncgl0368, Ncgl2877, Ncgl0275, Ncgl2359, Ncgl1525, Ncgl0976, Ncgl2673, Ncgl2297, and Ncgl1524 vector” under “Material and Method”, and then introducing each of the vectors thus obtained to a Corynebacterium glutamicum S003 strain.

[3] = tested on: Corynebacterium glutamicum S003 strain; conditions: 0.0625 M succinic acid, anaerobic, 5 hours, vs control without succinic acid
Protocol: After isolating total RNA from the cultured cells by using RNeasy midi kit (Qiagen), a transciptome was analyzed by using a Corynebacterium glutamicum ATCC 13032, 3×20K chip microarray (MYcroarray.com) according the protocol of the same manufacturer. 6134 unique probes are immobilized on the chip, where each of the probes is a three-times repeat.

[4] = 0.25 M succinic acid, anaerobic, S003 strain

`O=C(O)CCC(=O)O` [succinic acid] was tested, and the “glucose uptake rate compared with control group” value ([1]; 0.0625 M succinic acid, after 15 hours) was “the same”, the glucose uptake ([1]; 0.0625 M succinic acid, within the first 5 hours) was “suppressed” and the “decrease of glucose uptake rate” value [1, 4] was “about 66.4%”. For the same compound, the succinic acid production [1, 4] was “almost not produced”, the IC50 ([1]; read-out: IC50 value of the glucose uptake rate) was 13 mg/mL (≈ 110 mM) and the IC50 ([1]; read-out: IC50 value of the succinic acid production) was 100 mM and 11800 µg/mL. For the same compound, the IC50 ([2]; Corynebacterium glutamicum, read-out: IC50 value of the glucose uptake rate) was 70.8 mg/mL (≈ 600 mM), the “increase of IC50 compared to the control group” value ([2]; S003/pGEX4-NCgl0275 strain vs control) was “about 5.45 fold” and the “Fold of reduction of expression, Ncgl0275 (whiB4)” value [3] was 1.56 fold. The “Fold of reduction of expression, Ncgl0368” value [3] was 1.60 fold, the “Fold of reduction of expression, Ncgl1524 (tpi/tpiA)” value [3] was 1.700 fold and the “Fold of reduction of expression, Ncgl1853 (nrdR)” value [3] was 4.24 fold. The “Fold of reduction of expression, Ncgl1855 (lexA)” value [3] was 2.44 fold, the “Fold of reduction of expression, Ncgl2297 (mdh)” value [3] was 1.700 fold and the “Fold of reduction of expression, Ncgl2359” value [3] was 1.52 fold. The “Fold of reduction of expression, Ncgl2404” value [3] was 1.73 fold, the “Fold of reduction of expression, Ncgl2425” value [3] was 1.74 fold and the “Fold of reduction of expression, Ncgl2673 (fda)” value [3] was 1.820 fold. For the same compound, the “Fold of reduction of expression, Ncgl2877” value [3] was 1.57 fold, the “Fold of reduction of expression, Ncgl2988 (parB)” value [3] was 1.91 fold and the “reduction of expression of nine expected transcription regulator genes (NCgl1853, NCgl1855, NCgl0368, NCgl0275, NCgl2359, NCgl2404, NCgl2425, NCgl2988, NCgl2877)” value [3] was no less than 1.5 fold.
